For the test, the target named is humaner Carboanhydrase II (Homo sapiens, UniProt P00918). The experiment in a line: Carbonic anhydrase inhibition, photometric, nitrophenyl acetate conversion on microtitre plates. Format: biochemical. The settings on record: humane Carboanhydrase II; read-out: CAII IC50. From the text:
Photometrische Bestimmung der Hemmung von humaner Carboanhydrase I oder II durch Sulfonamide oder Sulfamate auf Mikrotiterplatten mit Hilfe der enzymatischen Umwandlung von Nitrophenylacetat mit einem Farbumschlag von farblos nach gelb. Tabelle 1: IC50 Hemmwerte humaner Carboanhydrase I und II

For `C[C@]12CC[C@@H]3c4ccc(OS(N)(=O)=O)cc4CC[C@H]3[C@@H]1CC[C@@H]2O` [Estradiol-3-sulfamat], the IC50 – broadly, the concentration at which inhibition is half-maximal – worked out at 21.6 ± 1.5 nM.

Source of the values: patent EP2039702A2, “Prodrugs erbeta-selective substances, method for their production and pharmaceutical compounds containing these compositions” (Bayer Schering Pharma Aktiengesellschaft, priority 2005, dated 2007).
